These results are taken from patent US7417150B2, “Azoles having an insecticidal action” (Bayer CropScience AG, priority 2001, dated 2008).

Test [1] deals with Meloidogyne incognita. Kind of test: Meloidogyne test (nematicidal action, gall formation on lettuce roots). The format is in vivo. Conditions: 20 ppm active compound; 100% = no galls found, 0% = galls as untreated control; lettuce in sand. How it is done:
To produce a suitable preparation of active compound, 1 part by weight of active compound is mixed with the stated amounts of solvent and emulsifier, and the concentrate is diluted with water to the desired concentration.
Containers are filled with sand, solution of active compound, Meloidogyne incognita egg larvae suspension and lettuce seeds. The lettuce seeds germinate and the plants develop. On the roots, galls are formed.
After the desired period of time, the nematicidal action is determined in % using gall formation as a measure. 100% means that no galls were found; 0% means that the number of galls on the treated plants corresponds to that of the untreated control.

Test [2] concerns Adults of Ctenocephalides felis. Kind of test: Test with cat fleas / oral uptake. The test is classed as in vivo. Conditions: 100 ppm in citrated cattle blood, mortality after 24 h, strain "Georgi", at least 25% kill judged effective, read-out: % action (mortality of larvae). As for the experimental part:
Test with Cat Fleas/Oral Uptake
To produce a suitable preparation, a suitable solution of active compound is prepared from 20 mg of active compound and 1 ml of DMSO. 20 μl of this formulation are added to 4 ml of citrated cattle blood and stirred.
20 unfed adult fleas (Ctenocephalides felis, strain “Georgi”) are placed into a chamber (Ø 5 cm) whose top and bottom are closed with gauze. A metal cylinder whose underside is covered with parafilm is placed onto the chamber. The cylinder contains the 4 ml of blood/active compound formulation which can be taken up by the fleas through the parafilm membrane. Whereas the blood is warmed to 37° C., the temperature in the area of the flea chambers is adjusted to 25° C. Controls are mixed with the same volume of DMSO, without addition of a compound. The determinations are carried out triplicate.
After 24 h, the mortality in % is determined.
Compounds which effect an at least 25% kill of the fleas within 24 h are judged to be effective.

Regarding `CN(Cc1ccc(Cl)nc1)C1=N/C(=N/C#N)SC1` [drawing 50], the “Kill rate in % after 14 days” value in test [1] is 98%. Usually mortality stands for the share of the test organisms that died. In the case of `CN(Cc1ccc(Cl)nc1)C1=N/C(=N/C#N)SC1` [Example I-1, 4-(N-(6-chloro-3-pyridylmethyl)-N-methyl)amino-2-cyanimino-2,5-dihydro-[1,3]-thiazoline], the mortality at 100 ppm in test [2] came to 30%.
